Experimental data taken from patent US5591741A, “Fungicidal spiroheterocyclic derivatives” (American Cyanamid Company, priority 1993, dated 1997).

Experiments:
[1] = system: Erysiphe graminis f.sp. hordei; assay: Activity against barley powdery mildew, direct therapeutic (EGT); type: in vivo; details: direct therapeutic foliar spray, 600 ppm, up to 7 days
Experimental: (e) Activity against barley powdery mildew (Erysiphe graminis f.sp. hordei; EGT) The test is a direct therapeutic foliar spray. Leaves of barley seedlings, (cv. Golden Promise) at the single leaf stage are inoculated by dusting with mildew conidia one day prior to treatment with the test compound. The inoculated plants are kept overnight at glasshouse ambient temperature (18° C.) and humidity (40%) prior to treatment. The plants are sprayed with the test compound at a dosage of 600 ppm using an automated sprayline as described under (a). After drying, plants are returned to a compartment at 18° C. and 40% humidity for up to 7 days. Assessment is based on the percentage of leaf area covered by sporulation compared with that on leaves of control plants. The extent of disease control in all the above tests is expressed as a rating compared with either an untreated control or a diluent-sprayed-control, according to the criteria: […]

[2] = system: Phytophthora infestans; type: in vivo; details: tomato, direct protectant foliar spray
[3] = system: Botrytis cinerea; assay: Direct protectant activity against broad bean grey mould (BCB); type: in vivo; details: direct protectant foliar spray, 600 ppm, 4 days
Experimental: (c) Direct protectant activity against broad bean grey mould (Botrytis cinerea; BCB) The test is a direct protectant foliar spray. The upper surfaces of leaves of broad bean plants with two leaf pairs (cv The Sutton) are sprayed with the test compound at a dosage of 600 ppm using an automated sprayline as described under (a). 24 hours after spraying the leaves are inoculated with an aqueous suspension containing 10^6 conidia/ml. For 4 days after inoculation plants are kept in a high humidity compartment at 22° C. Disease is assessed 4 days after inoculation, based on the percentage of leaf surface area covered by lesions. The extent of disease control in all the above tests is expressed as a rating compared with either an untreated control or a diluent-sprayed-control, according to the criteria: […]

[4] = system: Plasmopara viticola; assay: Antisporulant activity against vine downy mildew (PVA); type: in vivo; details: vine leaves, antisporulant foliar spray, 600 ppm, 750 l/ha
Experimental: (a) Antisporulant activity against vine downy mildew (Plasmopara viticola; PVA) The test is a direct antisporulant one using a foliar spray. The lower surfaces of leaves of whole vine plants (cv Cabernet Sauvignon), approximately 8 cm high, are inoculated by spraying with an aqueous suspension containing 5×10^4 zoosporangia/ml. The inoculated plants are kept for 24 hours at 21° C. in a high humidity compartment, then 24 hours at glasshouse ambient temperature and humidity. Infected leaves are sprayed on their lower surfaces with a solution of active material in 1:1 water/acetone containing 0.04% "TWEEN 20" (Trade Mark; a polyoxyethylene sorbitan ester surfactant). Plants are treated using an automated sprayline with an atomising nozzle. The concentration of the compound is 600 ppm, and the spray volume is 750 l/ha. After spraying, the plants are returned to normal glasshouse conditions for 96 hours and are then transferred to the high humidity compartment for 24 hours to induce sporulation. Assessment is based on the percentage of the leaf area covered by sporulation compared with that on control leaves. The extent of disease control in all the above tests is expressed as a rating compared with either an untreated control or a diluent-sprayed-control, according to the criteria: […]

[5] = system: Venturia inaequalis; assay: Activity against apple scab in-vitro (VII); type: cell-based; details: 10 ppm, 10 days, 20° C., mycelial growth
Experimental: (j) Activity against apple scab in-vitro (Venturia inaequalis: VII) This test measures the in-vitro activity of compounds against V. inaequalis that causes apple scab. The test compound in acetone is added into 4 ml aliquots of half strength Potato Dextrose Broth dispensed in 25-compartment petri dishes to give final concentrations of 10 ppm. The fungal inoculum consists of mycelial fragments and spores of V. inaequalis grown on malt agar and added to the broth to provide 5×10^4 propagules/ml broth. Petri dishes are incubated at 20° C. for 10 days until the assessment of mycelial growth. The extent of disease control in all the above tests is expressed as a rating compared with either an untreated control or a diluent-sprayed-control, according to the criteria: […]

[6] = system: Pseudocercosporella herpotrichoides; assay: Activity against wheat eyespot in-vitro (PHI); type: cell-based; details: 10 ppm, 10 days, 20° C., mycelial growth
Experimental: (h) Activity against wheat eyespot in-vitro (Pseudocercosporella herpotrichoides; pHI) This test measures the in vitro activity of compounds against the fungus causing wheat eyespot. The test compound is dissolved or suspended in acetone and is added into 4 ml aliquots of half strength Potato Dextrose Broth (PDB) dispended in 25-compartment petri dishes to give a final concentration of 10ppm. The fungal inoculum consists of mycelial fragments of P. herpotrichoides grown in half strength PDB in shaken flasks and added to the broth to provide 5×10^4 fragments/ml broth. Petri dishes are incubated at 20° C. for 10 days until the assessment of mycelial growth. The extent of disease control in all the above tests is expressed as a rating compared with either an untreated control or a diluent-sprayed-control, according to the criteria: […]

[7] = system: Pyricularia oryzae; type: in vivo; details: rice seedlings, direct therapeutic foliar spray, 600 ppm, 4-5 days
[8] = system: Rhizoctonia solani; assay: Activity against Rhizoctonia in-vitro (RSI); type: cell-based; details: 10 ppm, 10 days, 20° C., mycelial growth
Experimental: (i) Activity against Rhizoctonia in-vitro (Rhizoctonia solani: RSI) This test measures the in-vitro activity of compounds against R. solani that causes stem and root rots. The test compound in acetone is added into 4 ml aliquots of half strength Potato Dextrose Broth dispensed in 25-compartment petri dishes to give final concentrations of 10 ppm. The fungal inoculum consists of mycelial fragments of R. solani growth in half strength PDB in shaken culture flasks and added to the broth to provide 5×10^4 fragments/ml broth. Petri dishes are incubated at 20° C. for 10 days until the assessment of mycelial growth. The extent of disease control in all the above tests is expressed as a rating compared with either an untreated control or a diluent-sprayed-control, according to the criteria: […]

[9] = system: Leptosphaeria nodorum; assay: Activity against wheat leafspot (LN); type: in vivo; details: direct therapeutic foliar spray, 600 ppm, 6-8 days
Experimental: (d) Activity against wheat leafspot (Leptosphaeria nodorum; LN.) The test is a direct therapeutic foliar spray. Leaves of wheat plants (cv Norman), at the single leaf stage, are inoculated by spraying with an aqueous suspension containing 1.5×10^6 conidia/ml. The inoculated plants are kept for 24 hours in a high humidity compartment prior to treatment. The plants are sprayed with a solution of the test compound at a dosage of 600 ppm using an automated sprayline as described under (a). After drying, the plants are kept for 6-8 days at 22° C. and moderate humidity (70%). Assessment is based on the density of lesions per leaf compared with that on leaves of control plants. The extent of disease control in all the above tests is expressed as a rating compared with either an untreated control or a diluent-sprayed-control, according to the criteria: […]

[10] = system: Alternaria solani; assay: Activity against tomato early blight (AS); type: in vivo; details: Table VI; tomato seedlings, contact prophylactic foliar spray, 4 days
Experimental: b) Activity against tomato early blight (Alternaria solani; AS) This test measures the contact prophylactic activity of test compounds applied as a foliar spray. Tomato seedlings (cv Outdoor Girl) are grown to the stage at which the second true leaf is expanded. The plants are treated using an automated sprayline as described under (a). Test compounds are applied as solutions or suspensions in a mixture of acetone and water (50:50 v/v) containing 0.04% surfactant ("TWEEN 20"--Trade Mark). After drying the plants are kept for 24 hours in a glasshouse at 20° C. and 40% R.H., followed by inoculation of the leaf upper surfaces with a suspension of A. solani conidia containing 10^4 spores/ml. For 4 days after inoculation plants are kept moist in a humidity compartment at 21° C. Disease is assessed 4 days after inoculation, based on the percentage of leaf surface area covered by lesions when compared with control plants. The extent of disease control in all the above tests is expressed as a rating compared with either an untreated control or a diluent-sprayed-control, according to the criteria: […]

[11] = system: Erysiphe graminis f.sp. hordei; assay: Direct protectant activity against barley powdery mildew (EGP); type: in vivo; details: direct protectant foliar spray, 8 days
Experimental: (f) Direct protectant activity against barley powdery mildew (Erysiphe graminis f.sp. hordei; EGP) The test is a direct protectant foliar spray. Leaves of barley seedlings (cv Golden Promise) at the single leaf stage are sprayed with the test compound as described under (a). After drying, the plants are kept for 24 hours in a glasshouse at 18° C. and 40% R.H. Then the plants are inoculated by dusting with mildew conidia and kept at 18° C. and 40% R.H. for 8 days. Assessment is based on the percentage of leaf area covered by sporulation compared with that on leaves of control plants. The extent of disease control in all the above tests is expressed as a rating compared with either an untreated control or a diluent-sprayed-control, according to the criteria: […]

Row | SMILES | disease control rating EGT [1] | disease control rating PIP [2] | disease control rating BCB [3] | disease control rating PVA [4] | disease control rating VII [5] | disease control rating PHI [6] | disease control rating PO [7] | disease control rating RSI [8] | disease control rating LN [9] | disease control rating AS [10] | disease control rating EGP [11]
1 | CC1CCC(NC2COC3(CCC(C(C)(C)C)CC3)C2)CC1 (stereo not shown) [Compound 89] | 2 (greater than 80% disease control) | 0 (less than 50% disease control) | 0 (less than 50% disease control) | 1 (about 50-80% disease control) | 0 (less than 50% disease control) | 0 (less than 50% disease control) | 0 (less than 50% disease control) | 1 (about 50-80% disease control) | 1 (about 50-80% disease control) | 0 (less than 50% disease control) | 2 (greater than 80% disease control)
2 | CC1CCN(C2COC3(CCC(C(C)(C)CC(C)(C)C)CC3)C2)CC1 (stereo not shown) [Compound 135] | 2 (greater than 80% disease control) | – | 0 (less than 50% disease control) | 0 (less than 50% disease control) | 1 (about 50-80% disease control) | 2 (greater than 80% disease control) | 0 (less than 50% disease control) | 2 (greater than 80% disease control) | 1 (about 50-80% disease control) | 0 (less than 50% disease control) | 2 (greater than 80% disease control)
3 | CC(C)(C)C1CCC2(CC1)CC(NCc1ccc(Cl)cc1)CO2 (stereo not shown) [Compound 1] | 2 (greater than 80% disease control) | 0 (less than 50% disease control) | 0 (less than 50% disease control) | 0 (less than 50% disease control) | 0 (less than 50% disease control) | 1 (about 50-80% disease control) | 0 (less than 50% disease control) | 0 (less than 50% disease control) | 0 (less than 50% disease control) | 0 (less than 50% disease control) | –
4 | CC1CN(C2COC3(CCC(C(C)(C)C)CC3)C2)CC(C)O1 (stereo not shown) [Compound 3] | 1 (about 50-80% disease control) | 0 (less than 50% disease control) | 0 (less than 50% disease control) | 0 (less than 50% disease control) | 2 (greater than 80% disease control) | 2 (greater than 80% disease control) | 0 (less than 50% disease control) | 0 (less than 50% disease control) | 0 (less than 50% disease control) | 0 (less than 50% disease control) | –
5 | CC1CC(C)CN(C2COC3(CCC(C(C)(C)CC(C)(C)C)CC3)C2)C1 (stereo not shown) [Compound 136] | 2 (greater than 80% disease control) | – | 0 (less than 50% disease control) | 0 (less than 50% disease control) | 0 (less than 50% disease control) | 2 (greater than 80% disease control) | 0 (less than 50% disease control) | 2 (greater than 80% disease control) | 0 (less than 50% disease control) | 0 (less than 50% disease control) | 2 (greater than 80% disease control)
6 | CCCCCCNC1COC2(CCC(C(C)(C)C)CC2)C1 (stereo not shown) [Compound 2] | 2 (greater than 80% disease control) | 0 (less than 50% disease control) | 0 (less than 50% disease control) | 0 (less than 50% disease control) | 0 (less than 50% disease control) | 1 (about 50-80% disease control) | 0 (less than 50% disease control) | 1 (about 50-80% disease control) | 0 (less than 50% disease control) | 0 (less than 50% disease control) | –
